Data from US20250250261A1, “NOVEL SUBSTITUTED FLUORINATED VINYL-N-PROPYL-PYRROLIDINE COMPOUNDS, PROCESSES FOR THEIR PREPARATION AND THERAPEUTIC USES THEREOF” (SANOFI, priority 2022, published 2025).

Molecular target: T1, ERα (Homo sapiens, UniProt P03372)
T1 construct: host or cells: MCF7
T1 sequence (P03372 1-595): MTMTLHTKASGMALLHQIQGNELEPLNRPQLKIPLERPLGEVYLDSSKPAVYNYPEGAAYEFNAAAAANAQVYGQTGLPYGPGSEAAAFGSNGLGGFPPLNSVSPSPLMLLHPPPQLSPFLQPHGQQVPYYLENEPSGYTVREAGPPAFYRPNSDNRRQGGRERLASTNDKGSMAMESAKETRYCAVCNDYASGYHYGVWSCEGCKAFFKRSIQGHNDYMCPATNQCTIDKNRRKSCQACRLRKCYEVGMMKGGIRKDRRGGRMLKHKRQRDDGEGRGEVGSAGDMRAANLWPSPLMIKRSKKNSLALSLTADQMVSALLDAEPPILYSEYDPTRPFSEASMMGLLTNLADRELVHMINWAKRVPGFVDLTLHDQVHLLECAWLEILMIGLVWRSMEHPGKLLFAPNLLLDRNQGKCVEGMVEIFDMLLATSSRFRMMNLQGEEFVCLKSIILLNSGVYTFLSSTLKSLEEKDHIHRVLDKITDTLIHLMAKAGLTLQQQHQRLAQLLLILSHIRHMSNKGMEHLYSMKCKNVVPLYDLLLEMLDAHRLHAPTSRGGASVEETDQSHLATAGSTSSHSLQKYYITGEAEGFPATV
Assay: Estrogen receptor degradation activity: breast cancer cell ERα in cell western assay (MCF7 cells)
Type: cell-based
Settings: 4 hours, % of ERα levels decrease relative to fulvestrant (0.1 μM) and DMSO
Protocol: Test: Estrogen Receptor Degradation Activity
Said test involves measuring the in vitro degradation activity of the compounds of the Table 1a.
The measurements of the degradation activities were made using a breast cancer cell ERα in cell western assay as described hereunder.
MCF7 cells (ATCC) were seeded in 384 wells microplate (collagen coated) at a concentration of 10000 cells/30 μL per well in red phenol free MEM alpha medium (invitrogen) containing 5% charcoal dextran striped FBS. The following day, 9 points serial 1:5 dilution of each compound was added to the cells in 2.5 μL at final concentrations ranging from 0.3-0.0000018 μM (in table 2), or 0.1 μM for fulvestrant (using as positive control). At 4 hours post compound addition the cells were fixed by adding 25 μL of formalin (final concentration 5% formalin containing 0.1% triton) for 10 minutes at room temperature and then washed twice with PBS. Then, 50 μL of LI-COR blocking buffer containing 0.1% Triton was added to plate for 30 minutes at room temperature. LI-COR blocking buffer was removed and cells were incubated overnight at cold room with 50 μL anti-ER rabbit monoclonal antibody (Thermo scientific MA1-39540) diluted at 1:1000 in LI-COR blocking buffer containing 0.1% tween-20. Wells which were treated with blocking buffer but no antibody were used as background control. Wells were washed twice with PBS (0.1% tween-20) and incubated at 37° C. for 60 minutes in LI-COR (0.1% tween-20) containing goat anti-rabbit antibody Alexa 488 (1:1000) and Syto-64 a DNA dye (2 μM final concentration). Cells were then washed 3 times in PBS and scanned in ACUMEN explorer (TTP-Labtech). Integrated intensities in the green fluorescence and red fluorescence were measured to determine the levels of ERα and DNA respectively.
The degradation activity with respect to estrogen receptors in this test is given by the concentration which degrades 50% of the estrogen receptor (or IC50) in nM.
The % of ERα levels decrease were determined as follows: % inhibition=100*(1−(sample−fulvestrant:DMSO−fulvestrant)).

SMILES | % Degradation At 0.3 μM
Cc1cc(F)cc(C)c1C1=C(c2ccc(/C=C3/CCN(CCCF)C3)cc2)c2ccc(C(=O)O)cc2CCC1 [Compound 21, (Z)-8-(4-fluoro-2,6-dimethylphenyl)-9-(4-((1-(3-fluoropropyl)pyrrolidin-3-ylidene)methyl)phenyl)-6,7-dihydro-5H-benzo[7]annulene-3-carboxylic acid] | 94%
O=C(O)c1ccc2c(c1)CCCC(c1ccccc1C(F)(F)F)=C2c1ccc(/C=C2/CCN(CCCF)C2)cc1 [Compound 22, (Z)-9-(4-((1-(3-fluoropropyl)pyrrolidin-3-ylidene)methyl)phenyl)-8-(2-(trifluoromethyl)phenyl)-6,7-dihydro-5H-benzo[7]annulene-3-carboxylic acid] | 89%
O=C(O)c1ccc2c(c1)CCCC(c1ccc(Cl)cc1Cl)=C2c1ccc(/C=C2/CCN(CCCF)C2)c(F)c1 [Compound 23, (Z)-8-(2,4-dichlorophenyl)-9-(3-fluoro-4-((1-(3-fluoropropyl)pyrrolidin-3-ylidene)methyl)phenyl)-6,7-dihydro-5H-benzo[7]annulene-3-carboxylic acid] | 96%
Cl.O=C(O)c1ccc2c(c1)CCC(c1ccc(Cl)cc1Cl)=C2c1ccc(/C=C2/CCN(CCCF)C2)cc1 [Compound 24, (Z)-6-(2,4-dichlorophenyl)-5-(4-((1-(3-fluoropropyl)pyrrolidin-3-ylidene)methyl)phenyl)-7,8-dihydronaphthalene-2-carboxylic acid hydrochloride] | 91%
O=C(O)c1ccc2c(c1)CCCC(c1cccc(C(F)(F)F)c1)=C2c1ccc(/C=C2/CCN(CCCF)C2)cc1 [Compound 25, (Z)-9-(4-((1-(3-fluoropropyl)pyrrolidin-3-ylidene)methyl)phenyl)-8-(3-(trifluoromethyl)phenyl)-6,7-dihydro-5H-benzo[7]annulene-3-carboxylic acid] | 91%
O=C(O)c1ccc2c(c1)CCCC(c1ccc(C(F)(F)F)cc1)=C2c1ccc(/C=C2/CCN(CCCF)C2)cc1 [Compound 26, (Z)-9-(4-((1-(3-fluoropropyl)pyrrolidin-3-ylidene)methyl)phenyl)-8-(4-(trifluoromethyl)phenyl)-6,7-dihydro-5H-benzo[7]annulene-3-carboxylic acid] | 92%
O=C(O)c1ccc2c(c1)CCCC(c1cccc(Cl)c1)=C2c1ccc(/C=C2/CCN(CCCF)C2)cc1 [Compound 27, (Z)-8-(3-chlorophenyl)-9-(4-((1-(3-fluoropropyl)pyrrolidin-3-ylidene)methyl)phenyl)-6,7-dihydro-5H-benzo[7]annulene-3-carboxylic acid] | 93%
O=C(O)c1ccc2c(c1)CCCC(c1ccc(Cl)cc1)=C2c1ccc(/C=C2/CCN(CCCF)C2)cc1 [Compound 28, (Z)-8-(4-chlorophenyl)-9-(4-((1-(3-fluoropropyl)pyrrolidin-3-ylidene)methyl)phenyl)-6,7-dihydro-5H-benzo[7]annulene-3-carboxylic acid] | 93%
Cc1cc(C2=C(c3ccc(/C=C4/CCN(CCCF)C4)cc3)c3ccc(C(=O)O)cc3CCC2)c(C)cc1F [Compound 29, (Z)-8-(4-fluoro-2,5-dimethylphenyl)-9-(4-((1-(3-fluoropropyl)pyrrolidin-3-ylidene)methyl)phenyl)-6,7-dihydro-5H-benzo[7]annulene-3-carboxylic acid] | 92%
Oc1ccc2c(c1)SCCC(c1ccc(Cl)cc1Cl)=C2c1ccc(/C=C2/CCN(CCCF)C2)cc1 [Compound 30, (Z)-4-(2,4-dichlorophenyl)-5-(4-((1-(3-fluoropropyl)pyrrolidin-3-ylidene)methyl)phenyl)-2,3-dihydrobenzo[b]thiepin-8-ol] | 90%
